Measured values taken from US8426448B2, “1,5-diphenyl-pyrrolidin-2-one compounds as CB-1 ligands” (Eli Lilly and Company, priority 2008, dated 2013).
Structures can show the parent of a compound that is named as a salt.

How the values were obtained:
CYP2C9 = biological target: T1, CYP2C9 (Homo sapiens, UniProt P11712); test: Human CYP fingerprinting, sulfaphenazole inhibition; type: in vitro ADME; conditions: 4 μM, human liver microsomes, 30 min, 5 μM sulfaphenazole
T1 construct: pooled, mixed gender, human liver microsomes; from tissue; host or cells: pooled, mixed gender human liver microsomes
T1 sequence (P11712 whole entry): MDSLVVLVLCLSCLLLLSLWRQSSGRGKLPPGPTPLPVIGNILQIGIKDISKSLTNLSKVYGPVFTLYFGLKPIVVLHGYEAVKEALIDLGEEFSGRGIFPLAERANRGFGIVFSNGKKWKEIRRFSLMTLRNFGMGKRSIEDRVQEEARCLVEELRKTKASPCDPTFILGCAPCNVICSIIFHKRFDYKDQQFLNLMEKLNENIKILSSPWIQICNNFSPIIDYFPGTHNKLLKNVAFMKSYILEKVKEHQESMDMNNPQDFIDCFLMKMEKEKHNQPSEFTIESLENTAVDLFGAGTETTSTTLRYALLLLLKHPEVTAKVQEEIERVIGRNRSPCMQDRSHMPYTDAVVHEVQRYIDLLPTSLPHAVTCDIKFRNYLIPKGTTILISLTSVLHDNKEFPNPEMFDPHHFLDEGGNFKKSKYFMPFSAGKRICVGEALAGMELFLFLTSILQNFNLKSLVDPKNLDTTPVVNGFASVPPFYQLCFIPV
Method: (§1) CYP fingerprinting is well established technique and is used as an indication of potential risk of drug-drug interactions in the pharmaceutical sciences. Compounds of the present invention may be assayed by well known methods, essentially as follows: Compounds are incubated at 37° C. at a final concentration of 4 μM with pooled, mixed gender, human liver microsomes and 1 mM NADPH (Nicotine Adenine Dinucleotide Phosphate) (final conc.) for 0 and 30 min. without any CYP inhibitor and with each CYP inhibitor in separate incubations for 30 min. Each inhibitor is specific for an individual cytochrome P450. The specific inhibitors used for CYPs 2C9, 2D6 and 3A were sulfaphenazole, quinidine and ketoconazole, respectively. Ketoconazole (CYP3A) is made up at 25 mM in DMSO and then diluted in buffer to a final concentration of 10 μM. Quinidine (CYP2D6) is made up at 5 mM in 50/50 acetonitrile/water and then diluted in buffer to a final concentration of 10 μM. Sulfaphenazole (CYP2C9) is made up at 100 mM in DMSO and then diluted in buffer to a final concentration of 5 μM. Samples are analyzed by LC-MS in positive or negative electrospray mode using a Waters Acquity Ultra Performance LC coupled to a MicroMass Q-T of-2 mass spectrometer.
(§2) Data are analyzed using MetaboLynx™ version 4.1. […]

hCB-1 = hCB-1 (Homo sapiens, UniProt P21554); test: hCB1-Sf9 antagonist mode SPA GTP-γ-35S binding assay; type: biochemical; set-up: purchased Applied Cell Sciences, Rockville, Md; conditions: Sf9 membrane 22.7 μg; antagonist mode vs methanandamide; read-out: hCB-1 SPA GTPγS Sf9 Membrane 22.7 μg Antagonist Kb
Chain of hCB-1 (P21554 whole entry): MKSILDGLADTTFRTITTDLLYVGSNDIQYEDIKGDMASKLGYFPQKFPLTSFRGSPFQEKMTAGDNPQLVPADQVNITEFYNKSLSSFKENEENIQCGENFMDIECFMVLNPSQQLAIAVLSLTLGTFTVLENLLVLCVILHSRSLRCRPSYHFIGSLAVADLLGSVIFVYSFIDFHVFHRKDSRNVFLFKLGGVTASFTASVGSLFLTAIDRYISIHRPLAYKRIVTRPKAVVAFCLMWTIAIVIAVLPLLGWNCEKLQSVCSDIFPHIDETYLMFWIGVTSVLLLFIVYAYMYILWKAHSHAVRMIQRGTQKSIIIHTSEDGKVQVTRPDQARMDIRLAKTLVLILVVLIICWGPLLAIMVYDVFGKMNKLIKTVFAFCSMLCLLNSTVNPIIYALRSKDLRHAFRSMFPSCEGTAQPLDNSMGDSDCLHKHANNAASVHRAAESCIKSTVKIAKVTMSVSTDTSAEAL
Method: (§3) Compounds of the present invention may be tested for functional activity at the CB-1 and CB-2 receptors in both agonist and antagonist modes using SPA (Scintillation Proximity Assay) based GTP-γ-^35S binding assays. All assay components are prepared in assay buffer (20 mM HEPES, 100 mM NaCl, 5 mM MgCl2, pH 7.4) at room temperature. Semi-log dilutions of test compound are prepared in assay buffer containing BSA (0.125% final conc.) for the agonist mode assays. For the antagonist mode assays, test compounds are prepared in the same manner but also include an 80% efficacious dose of a full agonist (methanandamide). GTP-γ^35S binding for the antagonist assay may be measured in a 96 well format using a modification of an antibody capture technique previously described. (DeLapp, N W, et al. (1999) J Pharmacol Exp Ther 289:946-955.) The CB-2 receptor agonist activity may be measured using a similar method using hCB2-Sf9 membranes. The CB-1 receptor agonist activity may be measured using a whole membrane capture technique using hCB1-CHO membranes. All incubations are done at room temperature. […]
(§4) Data are analyzed as follows: Background is subtracted from all wells. […] Percent antagonist inhibition is calculated by first normalizing the data to the signal generated by a saturating concentration of the full agonist (methanandamide). Then the data are analyzed using a 4-parameter logistic reduced fit (Activity Base™ and XLFit3™ from IDBS, Emeryville, Calif.). Kb values are determined using a modification of the Cheng-Prusoff relationship: Kb=IC50/(1+[agonist]/EC50), where “IC50” is determined from a four parameter fit of displacement curves, “[agonist]” is the agonist challenge concentration (nM), and “EC50” is determined from a four parameter fit of a full agonist concentration response curve (Cheng and Prusoff 1973). Mean Kb values are calculated as a mean of at least three independent determinations±standard error of the mean (SEM). […]

hCB-2 = biological target: T2, hCB-2 (Homo sapiens, UniProt P34972); test: hCB2-Sf9 antagonist mode SPA GTP-γ-35S binding assay; type: biochemical; conditions: antagonist mode vs methanandamide; read-out: hCB-2 SPA GTPγS Sf9 Membrane Antagonist Kb
T2 construct: purchased Perkin Elmer, Boston, Mass; host or cells: Sf9 cell membranes
T2 sequence (P34972 whole entry): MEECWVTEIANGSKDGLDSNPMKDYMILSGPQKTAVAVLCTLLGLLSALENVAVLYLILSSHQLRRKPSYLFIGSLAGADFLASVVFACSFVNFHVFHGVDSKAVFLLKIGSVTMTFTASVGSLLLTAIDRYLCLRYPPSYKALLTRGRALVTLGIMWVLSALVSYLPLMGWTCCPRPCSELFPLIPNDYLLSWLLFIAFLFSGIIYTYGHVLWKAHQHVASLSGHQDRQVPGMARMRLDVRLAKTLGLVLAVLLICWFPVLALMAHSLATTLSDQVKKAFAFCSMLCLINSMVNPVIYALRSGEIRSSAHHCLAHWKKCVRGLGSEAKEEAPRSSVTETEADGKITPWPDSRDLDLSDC
Method: as §3, §4

Dog oral bioavailability = type: in vivo; conditions: plasma; fasted female beagle dog; IV 0.25 mg/kg, PO 1 mg/kg; mean±s.d, n=2; based on AUC0-∞
Method: Cohorts of three or four 250-450 gram male Sprague-Dawley rats or approximately 10 kg Beagle dogs (female or male) are used. […] Dogs are administered i.v. by cannulated cephalic vein and blood collections are by jugular vein. Animals are first dosed at 0.25 mg/kg i.v. and blood samples (0.2 mL) are then collected using EDTA as an anticoagulant at 0.0830, 0.25, 0.50, 1, 2, 4, 8, 12, 24, 48, 72, 96, and 120 hours. Next after at least two days and after 18-24 hours fasting, the animals are dosed at 1.0 mg/kg by oral gavage. During the course of a study the total of blood (ml) collected is not to exceed 1% of total body weight in grams. Should larger blood volumes be required, the sampled blood volume is replace with heparinized whole blood from a donor animal. When using a cross-over study design, rats receive a volume of heparinized whole blood following the final sample of each study day approximately equal to that removed during study.
Compound plasma concentrations are measured by LC/MS/MS assays. Data are then analyzed using standard non-compartmental pharmacokinetic analysis. Oral bioavailability is calculated as: (AUC0-infinity,oral/AUC0-infinity,i.v.)×(Dose,i.v./Dose,oral)×100%

CYP3A = test: Human CYP fingerprinting, ketoconazole inhibition; type: in vitro ADME; conditions: 4 μM, human liver microsomes, 30 min, 10 μM ketoconazole
Method: as §1, §2

In the case of `CC(C)(N[C@@H]1C[C@H](c2cccc(C(F)(F)F)c2)N(c2ccc(OC(F)(F)F)cc2)C1=O)c1cccc(C(F)(F)F)n1` [28 HCl salt, (3R,5R)-3-[1-methyl-1-(6-trifluoromethyl-pyridin-2-yl)-ethylamino]-1-(4-trifluoromethoxy-phenyl)-5-(3-trifluoromethyl-phenyl)-pyrrolidin-2-one], the “Risk of Drug Drug Interaction (DDI) CYP2C9” value (CYP2C9) is reported as “low (a reduction in metabolite peak area of less than 30% (relative to the uninhibited control incubation) receives a designation of low risk of Drug Drug Interaction (DDI))”, the Kb (hCB-1) is reported as 0.59 nM and the Kb (hCB-2) is reported as greater than 9090 nM. For the same compound, the bioavailability (Dog oral bioavailability) was 32 ± 18% and the “Risk of Drug Drug Interaction (DDI) CYP3A” value (CYP3A) was “Low”.
